Measured values reported in patent publication US5010083A, “2,6-methano-1,3-benzodiazocine compounds which have useful pharmaceutical utility” (priority 1989, dated 1991).
pIC50: −log10 of the molar value. Structures can show the parent of a compound that is named as a salt.

Target: T1, brain acetylcholinesterase (AChE) (Rattus norvegicus, UniProt P37136)
T1 construct: corpora striata dissected free, weighed and homogenized in 19 volumes; from tissue; host or cells: corpora striata of male Wistar rats, whole homogenate
T1 sequence (P37136 32-614): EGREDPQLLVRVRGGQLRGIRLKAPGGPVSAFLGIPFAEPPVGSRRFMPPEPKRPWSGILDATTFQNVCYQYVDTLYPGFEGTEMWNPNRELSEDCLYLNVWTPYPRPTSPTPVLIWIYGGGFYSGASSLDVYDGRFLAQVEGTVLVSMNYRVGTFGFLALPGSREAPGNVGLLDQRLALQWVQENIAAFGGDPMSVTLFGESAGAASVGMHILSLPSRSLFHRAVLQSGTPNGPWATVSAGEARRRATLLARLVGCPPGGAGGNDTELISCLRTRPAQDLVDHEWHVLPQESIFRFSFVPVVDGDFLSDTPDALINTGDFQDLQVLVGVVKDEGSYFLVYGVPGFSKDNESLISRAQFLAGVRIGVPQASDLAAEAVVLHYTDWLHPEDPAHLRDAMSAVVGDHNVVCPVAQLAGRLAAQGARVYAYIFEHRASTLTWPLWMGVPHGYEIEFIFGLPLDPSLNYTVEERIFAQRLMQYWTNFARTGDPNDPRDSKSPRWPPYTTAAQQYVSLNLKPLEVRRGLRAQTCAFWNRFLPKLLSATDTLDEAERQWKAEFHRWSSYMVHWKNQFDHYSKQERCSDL
Test: In Vitro Inhibition of Acetylcholinesterase Activity in Rat Striatum
Format: biochemical, rat (male Wistar)
Text: Cholinesterases are found throughout the body, both in the brain and in serum. However, only brain acetylcholinesterase (AChE) distribution is correlated with central cholinergic innervation. […] We have determined in vitro inhibition of acetylcholinesterase activity in rat striatum according to the method described below.
The method described below was used in this invention for assaying anticholinesterase activity.
1. 0.05M Phosphate buffer, pH 7.2
(c) add (a) to (b) until pH reaches 7.2
(a) 9.9 mg 5,5-dithiobisnitrobenzoic acid (DTNB) (0.25 mM)
(b) 99 mg s-acetylthiocholine chloride (5 mM)
(c) q.s. to 100 ml with 0.05M phosphate buffer, pH 7.2 (reagent 1)
Male Wistar rats are decapitated, brains rapidly removed, corpora striata dissected free, weighed and homogenized in 19 volumes (approximately 7 mg protein/ml) of 0.05M phosphate buffer, pH 7.2 using a Potter-Elvehjem homogenizer. […]
Using the indicated instrument settings the ABA-100 automatically reads the color reaction and prints out the results in enzyme units after 15 minutes.
2. The enzyme activity can also be measured with a Gilford 250 spectrophotometer. […]
The uninhibited activity of the enzyme (tissue homogenate) is first determined. […] The reaction rate is determined by the slope of the recorded absorbance change. The actual rate (moles/liter/min) can be calculated as described in the following formula

| Structure (SMILES) | pIC50 |
| --- | --- |
| CN1CCC2CC1N(C)c1ccc(OC(=O)NC3CCCCC3)cc12 (centres unmarked) [1,2,3,4,5,6-Hexahydro-1,3-dimethyl-2,6-methano-1,3-benzodiazocin-8-ol, cyclohexyl carbamate] | 4.97 |
| CNC(=O)Oc1ccc2c(c1)C1CCN(C)C(C1)N2C (centres unmarked) [1,2,3,4,5,6-Hexahydro-1,3-dimethyl-2,6-methano-1,3-benzodiazocin-8-ol, methyl carbamate fumarate] | 7.24 |
